The results in this text go back to ChEMBL document CHEMBL1136569, “Quinolone-based IMPDH inhibitors: introduction of basic residues on ring D and SAR of the corresponding mono, di and benzofused analogues” (Bioorg Med Chem Lett, 2003).

In one assay the test system is CCRF-CEM. The assay is described as follows: Inhibitory activity against proliferation of CEM cell line. Format: functional, cell-based, Homo sapiens.
Assay [1] has as its target Inosine-5'-monophosphate dehydrogenase 2 (Homo sapiens, UniProt P12268). The assay is described as follows: Inhibitory activity against inosine monophosphate dehydrogenase IMPDH II.
Assay [2] is described as follows: Inhibitory activity against proliferation of peripheral blood mononuclear cells. The format is functional, Homo sapiens.

Regarding `COc1cc2nc(-c3cccc(N4CCN(C)CC4)c3)cc(O)c2cc1-c1cnco1`, the IC50 in the assay on CCRF-CEM (Homo sapiens, CCRF-CEM) is 1700 nM; in assay [1] it was 16 nM. For `COc1cc2nc(-c3ccc(N4CCOCC4)cc3)cc(O)c2cc1-c1cnco1`, in that order: 1100 nM and 21 nM.

As to `COc1cc2nc(-c3ccc4c(c3)CCC4N(C)C)cc(O)c2cc1-c1cnco1` (stereo not given), the IC50 in the assay with CCRF-CEM (Homo sapiens, CCRF-CEM) was found to be 4100 nM; in assay [1], 55 nM. Consider `COc1cc2nc(-c3cccc(N4CCOCC4)c3)cc(O)c2cc1-c1cnco1`, for which the IC50 in assay [1] is under 50 nM. For `COc1cc2nc(-c3ccc(OC)c(N4CCN(C)CC4)c3)cc(O)c2cc1-c1cnco1`, the IC50 was determined as 10000 nM with CCRF-CEM (Homo sapiens, CCRF-CEM) and 140 nM in assay [1]. For `COc1cc2nc(-c3ccc(N4CCN(C)CC4)cc3)cc(O)c2cc1-c1cnco1`, in that order: 2200 nM and 53 nM. As for `COc1cc2nc(-c3ccc4c(c3)C(N3CCC3)CC4)cc(O)c2cc1-c1cnco1` (stereo not given), the IC50 in the assay with CCRF-CEM (Homo sapiens, CCRF-CEM) turned out to be 800 nM; in assay [1], 6 nM. For `COc1cc2nc(-c3ccc4c(c3)C(N3CCCC3)CCO4)cc(O)c2cc1-c1cnco1` (stereo not given), in that order: 1400 nM and 33 nM. Taken in the same sequence, the figures for `COc1cc2nc(-c3ccc4c(c3)C(O)CC4)cc(O)c2cc1-c1cnco1` (stereo not given) were 3100 nM and 28 nM.

Take `COc1cc2nc(-c3ccc4c(c3)C(N3CCCC3)CC4)cc(O)c2cc1-c1cnco1` (stereo not given): the IC50 amounted to 670 nM with CCRF-CEM (Homo sapiens, CCRF-CEM) and 13 nM in assay [1].

As for `COc1cc2nc(-c3ccc4c(c3)C(N3CCOCC3)CC4)cc(O)c2cc1-c1cnco1` (stereo not given), the 50% inhibitory concentration (IC50) is 1100 nM in the assay on CCRF-CEM (Homo sapiens, CCRF-CEM) and 20 nM in assay [1].

In the case of `COc1cc2nc(-c3ccc(C)c(N4CCN(C)CC4)c3)cc(O)c2cc1-c1cnco1`, the IC50 was determined as 1100 nM in the assay on CCRF-CEM (Homo sapiens, CCRF-CEM) and 26 nM in assay [1]. On to `COc1cc2nc(-c3ccc(C)c(OCCN4CCOCC4)c3)cc(O)c2cc1-c1cnco1`, for which the IC50 in the assay with CCRF-CEM (Homo sapiens, CCRF-CEM) is 600 nM; in assay [1], under 5 nM. For `COc1cc2nc(-c3ccc4c(c3)C(N(C)C(C)=O)CC4)cc(O)c2cc1-c1cnco1` (stereo not given), in that order: 1100 nM and 18 nM. Turning to `COc1cc2nc(-c3ccc4c(c3)C(N(C)C(=O)Cn3ccnc3)CC4)cc(O)c2cc1-c1cnco1` (stereo not given), the IC50 in the assay with CCRF-CEM (Homo sapiens, CCRF-CEM) was over 10000 nM; in assay [1] it was 68 nM.

In the case of `COc1cc2nc(-c3cccc(N4CCCC4)c3)cc(O)c2cc1-c1cnco1`, the IC50 is 2700 nM in the assay with CCRF-CEM (Homo sapiens, CCRF-CEM) and 25 nM in assay [1]. Taken in the same sequence, the figures for `COc1cc2nc(-c3ccc4c(c3)C(O)CCC4)cc(O)c2cc1-c1cnco1` (stereo not given) were 3400 nM and 83 nM.

Regarding `COc1cc2nc(-c3ccc4c(c3)C(N(C)C)CCO4)cc(O)c2cc1-c1cnco1` (stereo not given), the IC50 worked out at 720 nM in the assay with CCRF-CEM (Homo sapiens, CCRF-CEM) and 21 nM in assay [1]. As to `COc1cc2nc(-c3ccc(C)c(N4CCOCC4)c3)cc(O)c2cc1-c1cnco1`, the IC50 in the assay on CCRF-CEM (Homo sapiens, CCRF-CEM) stood at 650 nM; in assay [1] it was 5 nM.

`COc1cc2nc(-c3ccc4c(c3)CN(C)C4)cc(O)c2cc1-c1cnco1`: the IC50 in the assay on CCRF-CEM (Homo sapiens, CCRF-CEM) came out at 1100 nM; in assay [1], 14 nM.

As for `COc1cc2nc(-c3ccc4c(c3)C(N(C)C(=O)CN3CCOCC3)CC4)cc(O)c2cc1-c1cnco1` (stereo not given), the IC50 in the assay with CCRF-CEM (Homo sapiens, CCRF-CEM) came to 1800 nM; in assay [1] it was 18 nM.

As for `COc1cc2nc(-c3ccc4c(c3)C([N+](C)(C)C)CC4)cc(O)c2cc1-c1cnco1` (stereo not given), the IC50 in the assay on CCRF-CEM (Homo sapiens, CCRF-CEM) is over 10000 nM; in assay [1], 30 nM. In the case of `COCC(=O)N(C)C1CCc2ccc(-c3cc(O)c4cc(-c5cnco5)c(OC)cc4n3)cc21` (stereo not given), the IC50 was 1100 nM in the assay with CCRF-CEM (Homo sapiens, CCRF-CEM) and 12 nM in assay [1]. Taken in the same sequence, the figures for `COc1cc2nc(-c3ccc4c(c3)C(=O)CCC4)cc(O)c2cc1-c1cnco1` were 520 nM and under 10 nM. With `COc1cc2nc(-c3ccc(C)c(OCC4CCCO4)c3)cc(O)c2cc1-c1cnco1` (stereo not given), the IC50 was 710 nM in the assay with CCRF-CEM (Homo sapiens, CCRF-CEM) and under 5 nM in assay [1].

Consider `COc1cc2nc(-c3ccc4c(c3)C(N(C)C)CCC4)cc(O)c2cc1-c1cnco1` (stereo not given), for which the IC50 was 370 nM with CCRF-CEM (Homo sapiens, CCRF-CEM) and 15 nM in assay [1]. For the compound `CNC1CCc2ccc(-c3cc(O)c4cc(-c5cnco5)c(OC)cc4n3)cc21` (stereo not given), the IC50 in the assay with CCRF-CEM (Homo sapiens, CCRF-CEM) came out at 1600 nM; in assay [1], 12 nM.

For the compound `COc1cc2nc(-c3ccc4c(c3)N(C(C)=O)CCO4)cc(O)c2cc1-c1cnco1`, the IC50 amounted to 1300 nM in the assay with CCRF-CEM (Homo sapiens, CCRF-CEM) and 14 nM in assay [1].

As for `COc1cc2nc(-c3ccc(C)c(N4CCCC4)c3)cc(O)c2cc1-c1cnco1`, the IC50 in the assay with CCRF-CEM (Homo sapiens, CCRF-CEM) stood at 780 nM; in assay [1], 15 nM. With `COc1cc2nc(-c3ccc4c(c3)C(OC(=O)N(C)C)CC4)cc(O)c2cc1-c1cnco1` (stereo not given), half-maximal inhibition in assay [1] (IC50) was put at 11 nM. Take `COc1cc2nc(-c3ccc4c(c3)[C@@H](N(C)C)[C@H](OC)C4)cc(O)c2cc1-c1cnco1`: the IC50 was found to be 700 nM in the assay on CCRF-CEM (Homo sapiens, CCRF-CEM) and 15 nM in assay [1].

With `COc1cc2nc(-c3ccc4c(c3)C(N(C)C)CC4)cc(O)c2cc1-c1cnco1` (single isomer, unassigned; Enantiomer A), the IC50 was 270 nM in the assay on CCRF-CEM (ccrf-cem), 120 nM in assay [2] and under 5 nM in assay [1]. Taken in the same sequence, the figures for `COc1cc2nc(-c3ccc4c(c3)C(N(C)C)CC4)cc(O)c2cc1-c1cnco1` (single isomer, unassigned; enantiomer B) were 550 nM, 320 nM and under 5 nM. In the case of `COc1cc2nc(-c3ccc4c(c3)C(N(C)C)CC4)cc(O)c2cc1-c1cnco1` (stereo in doubt; 27), the IC50 in the assay on CCRF-CEM (ccrf-cem) was found to be 290 nM; in assay [1] it was 6 nM.

Turning to `COc1cc(NC(=O)Nc2cccc(CNC(=O)O[C@H]3CCOC3)c2)ccc1-c1cnco1` [MERIMEPODIB], in assay [2] (Homo sapiens), the half-inhibitory concentration (IC50) turned out to be 170 nM. Same read-out and setting: as for `COc1c(C)c2c(c(O)c1C/C=C(\C)CCC(=O)O)C(=O)OC2` [MYCOPHENOLIC ACID], the figure is 600 nM.

As a reminder, the IC50 is the midpoint of a concentration-inhibition curve.
